In ChEMBL document CHEMBL5291721, “A preclinical secondary pharmacology resource illuminates target-adverse drug reaction associations of marketed drugs” (Nat Commun, 2023):

Columns and labels:
[1] = target: Vasopressin V1a receptor (Homo sapiens, UniProt P37288)
[2] = target: Sodium-dependent noradrenaline transporter (Homo sapiens, UniProt P23975)
[3] = target: Sodium-dependent dopamine transporter (Homo sapiens, UniProt Q01959)
[4] = target: T1, 5-hydroxytryptamine receptor 3A (Homo sapiens, UniProt P46098); type: functional
T1 sequence (P46098 whole entry): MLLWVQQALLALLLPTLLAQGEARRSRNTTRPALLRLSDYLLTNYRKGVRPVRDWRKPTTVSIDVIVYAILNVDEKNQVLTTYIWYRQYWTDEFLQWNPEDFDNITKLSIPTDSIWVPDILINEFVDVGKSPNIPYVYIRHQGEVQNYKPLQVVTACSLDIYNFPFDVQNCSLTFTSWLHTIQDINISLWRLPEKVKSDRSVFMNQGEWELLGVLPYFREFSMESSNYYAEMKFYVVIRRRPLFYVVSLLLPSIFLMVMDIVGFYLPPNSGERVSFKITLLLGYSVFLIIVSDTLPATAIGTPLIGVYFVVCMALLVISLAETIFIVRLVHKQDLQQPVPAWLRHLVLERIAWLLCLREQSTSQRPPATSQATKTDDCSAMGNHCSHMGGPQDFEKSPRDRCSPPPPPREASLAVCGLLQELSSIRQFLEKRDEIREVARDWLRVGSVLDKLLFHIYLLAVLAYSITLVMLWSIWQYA

[5] = target: Histamine H3 receptor (Homo sapiens, UniProt Q9Y5N1)
Chain of Histamine H3 receptor (Q9Y5N1 whole entry): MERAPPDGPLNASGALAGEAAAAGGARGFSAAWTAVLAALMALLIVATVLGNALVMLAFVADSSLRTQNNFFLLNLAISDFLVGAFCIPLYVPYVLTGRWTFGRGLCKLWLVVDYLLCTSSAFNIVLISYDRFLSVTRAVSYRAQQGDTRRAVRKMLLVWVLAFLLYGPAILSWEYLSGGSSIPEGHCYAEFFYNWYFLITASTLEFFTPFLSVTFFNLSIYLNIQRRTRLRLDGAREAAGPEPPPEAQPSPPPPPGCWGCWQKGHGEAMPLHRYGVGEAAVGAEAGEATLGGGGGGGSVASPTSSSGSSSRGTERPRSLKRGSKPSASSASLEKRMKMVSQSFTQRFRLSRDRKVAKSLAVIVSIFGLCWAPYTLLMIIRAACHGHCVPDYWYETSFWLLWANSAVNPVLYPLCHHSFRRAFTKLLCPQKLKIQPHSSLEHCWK

[6] = target: T2, Thromboxane A2 receptor (Homo sapiens, UniProt P21731)
T2 sequence (P21731 whole entry): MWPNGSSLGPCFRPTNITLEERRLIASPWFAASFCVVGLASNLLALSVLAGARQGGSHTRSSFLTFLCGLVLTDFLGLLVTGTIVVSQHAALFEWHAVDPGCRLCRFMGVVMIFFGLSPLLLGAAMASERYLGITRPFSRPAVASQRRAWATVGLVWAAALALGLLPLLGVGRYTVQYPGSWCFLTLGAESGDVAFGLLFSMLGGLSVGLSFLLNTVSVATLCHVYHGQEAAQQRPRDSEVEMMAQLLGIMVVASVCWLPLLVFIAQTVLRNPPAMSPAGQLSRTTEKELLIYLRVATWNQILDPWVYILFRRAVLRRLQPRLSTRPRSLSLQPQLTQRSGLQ

[7] = target: 5-hydroxytryptamine receptor 2B (Homo sapiens, UniProt P41595); type: functional, cell-based
Chain of 5-hydroxytryptamine receptor 2B (P41595 whole entry): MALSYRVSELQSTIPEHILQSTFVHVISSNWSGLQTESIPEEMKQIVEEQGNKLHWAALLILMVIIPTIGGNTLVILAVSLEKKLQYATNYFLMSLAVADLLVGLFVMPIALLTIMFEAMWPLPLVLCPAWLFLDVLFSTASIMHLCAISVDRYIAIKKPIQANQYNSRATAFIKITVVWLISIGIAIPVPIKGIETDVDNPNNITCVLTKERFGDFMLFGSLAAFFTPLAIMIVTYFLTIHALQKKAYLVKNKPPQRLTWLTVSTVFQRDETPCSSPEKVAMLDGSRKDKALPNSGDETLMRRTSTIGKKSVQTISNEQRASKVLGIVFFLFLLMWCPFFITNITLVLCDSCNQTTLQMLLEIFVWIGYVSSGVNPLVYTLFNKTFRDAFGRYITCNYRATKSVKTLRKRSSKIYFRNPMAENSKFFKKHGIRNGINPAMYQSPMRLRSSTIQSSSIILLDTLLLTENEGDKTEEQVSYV

[8] = target: T3, Cholecystokinin receptor type A (Homo sapiens, UniProt P32238)
T3 sequence (P32238 whole entry): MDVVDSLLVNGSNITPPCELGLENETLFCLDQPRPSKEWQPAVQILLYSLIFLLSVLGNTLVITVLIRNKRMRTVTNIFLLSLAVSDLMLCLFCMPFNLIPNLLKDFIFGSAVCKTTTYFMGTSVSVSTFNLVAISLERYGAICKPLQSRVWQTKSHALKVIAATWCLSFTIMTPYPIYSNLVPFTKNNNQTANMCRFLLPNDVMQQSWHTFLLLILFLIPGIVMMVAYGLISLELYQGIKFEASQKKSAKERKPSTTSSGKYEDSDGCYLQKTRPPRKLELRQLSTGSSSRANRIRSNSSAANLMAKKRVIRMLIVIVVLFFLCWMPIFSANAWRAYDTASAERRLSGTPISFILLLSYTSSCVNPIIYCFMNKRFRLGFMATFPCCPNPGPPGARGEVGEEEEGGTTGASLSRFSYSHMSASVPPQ

[9] = target: cGMP-inhibited 3',5'-cyclic phosphodiesterase 3A (Homo sapiens, UniProt Q14432); type: functional
Chain of cGMP-inhibited 3',5'-cyclic phosphodiesterase 3A (Q14432 whole entry): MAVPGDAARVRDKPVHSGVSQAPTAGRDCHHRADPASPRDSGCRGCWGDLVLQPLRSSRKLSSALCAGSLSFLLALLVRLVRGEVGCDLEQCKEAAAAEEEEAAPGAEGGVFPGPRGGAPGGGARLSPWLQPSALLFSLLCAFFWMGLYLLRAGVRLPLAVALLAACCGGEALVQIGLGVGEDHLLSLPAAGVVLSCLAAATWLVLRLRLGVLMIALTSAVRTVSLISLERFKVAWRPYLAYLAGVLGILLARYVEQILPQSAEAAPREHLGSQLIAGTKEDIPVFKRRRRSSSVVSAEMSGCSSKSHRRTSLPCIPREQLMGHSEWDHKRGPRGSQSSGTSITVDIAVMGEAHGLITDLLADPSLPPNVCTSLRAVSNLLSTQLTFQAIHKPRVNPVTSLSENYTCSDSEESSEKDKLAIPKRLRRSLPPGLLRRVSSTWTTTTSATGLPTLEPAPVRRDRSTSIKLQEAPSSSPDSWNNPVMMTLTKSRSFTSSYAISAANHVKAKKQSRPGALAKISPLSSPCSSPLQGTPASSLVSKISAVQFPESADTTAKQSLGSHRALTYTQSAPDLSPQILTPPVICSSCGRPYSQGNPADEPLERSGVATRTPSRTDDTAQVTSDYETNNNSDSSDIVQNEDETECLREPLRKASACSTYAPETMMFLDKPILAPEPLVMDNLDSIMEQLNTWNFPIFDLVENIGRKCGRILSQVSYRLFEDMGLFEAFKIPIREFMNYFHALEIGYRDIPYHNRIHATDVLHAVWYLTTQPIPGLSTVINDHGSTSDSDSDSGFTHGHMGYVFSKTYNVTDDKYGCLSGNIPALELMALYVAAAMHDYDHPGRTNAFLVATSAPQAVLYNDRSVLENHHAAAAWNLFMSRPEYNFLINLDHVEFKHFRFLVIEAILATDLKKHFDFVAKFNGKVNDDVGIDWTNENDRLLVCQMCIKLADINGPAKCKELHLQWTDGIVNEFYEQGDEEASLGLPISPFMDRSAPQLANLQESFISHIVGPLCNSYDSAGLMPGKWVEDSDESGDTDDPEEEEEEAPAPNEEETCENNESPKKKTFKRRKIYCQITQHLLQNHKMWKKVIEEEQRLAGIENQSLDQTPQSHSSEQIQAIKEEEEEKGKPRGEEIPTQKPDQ

[10] = target: T4, 5-hydroxytryptamine receptor 2C (Homo sapiens, UniProt P28335)
T4 sequence (P28335 whole entry): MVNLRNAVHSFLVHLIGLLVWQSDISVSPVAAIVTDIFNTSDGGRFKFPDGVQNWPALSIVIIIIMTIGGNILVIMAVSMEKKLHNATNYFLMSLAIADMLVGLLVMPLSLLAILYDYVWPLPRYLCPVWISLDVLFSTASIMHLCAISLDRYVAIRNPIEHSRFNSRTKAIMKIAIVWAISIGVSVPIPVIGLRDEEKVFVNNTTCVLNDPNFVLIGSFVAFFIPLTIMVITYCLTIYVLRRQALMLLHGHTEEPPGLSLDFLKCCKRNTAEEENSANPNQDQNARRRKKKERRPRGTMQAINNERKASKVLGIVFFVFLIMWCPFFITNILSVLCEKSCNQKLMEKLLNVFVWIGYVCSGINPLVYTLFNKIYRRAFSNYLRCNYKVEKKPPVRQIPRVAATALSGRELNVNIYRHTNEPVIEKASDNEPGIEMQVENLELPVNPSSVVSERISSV

[11] = target: Gamma-aminobutyric acid receptor subunit alpha-1 (Rattus norvegicus, UniProt P62813)
Chain of Gamma-aminobutyric acid receptor subunit alpha-1 (P62813 whole entry): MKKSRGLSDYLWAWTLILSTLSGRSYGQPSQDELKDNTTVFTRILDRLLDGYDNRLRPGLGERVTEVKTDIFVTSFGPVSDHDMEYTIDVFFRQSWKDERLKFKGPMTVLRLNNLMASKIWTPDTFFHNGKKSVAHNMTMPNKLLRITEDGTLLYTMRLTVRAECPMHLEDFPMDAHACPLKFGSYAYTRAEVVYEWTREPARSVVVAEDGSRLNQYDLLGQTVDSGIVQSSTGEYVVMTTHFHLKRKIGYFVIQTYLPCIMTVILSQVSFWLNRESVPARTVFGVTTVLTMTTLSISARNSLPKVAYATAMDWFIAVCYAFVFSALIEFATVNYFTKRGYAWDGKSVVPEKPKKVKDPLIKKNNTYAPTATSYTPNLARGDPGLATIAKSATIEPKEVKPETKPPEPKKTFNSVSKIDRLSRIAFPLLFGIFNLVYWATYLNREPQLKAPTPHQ

[12] = target: Growth hormone secretagogue receptor type 1 (Homo sapiens, UniProt Q92847)
Chain of Growth hormone secretagogue receptor type 1 (Q92847 whole entry): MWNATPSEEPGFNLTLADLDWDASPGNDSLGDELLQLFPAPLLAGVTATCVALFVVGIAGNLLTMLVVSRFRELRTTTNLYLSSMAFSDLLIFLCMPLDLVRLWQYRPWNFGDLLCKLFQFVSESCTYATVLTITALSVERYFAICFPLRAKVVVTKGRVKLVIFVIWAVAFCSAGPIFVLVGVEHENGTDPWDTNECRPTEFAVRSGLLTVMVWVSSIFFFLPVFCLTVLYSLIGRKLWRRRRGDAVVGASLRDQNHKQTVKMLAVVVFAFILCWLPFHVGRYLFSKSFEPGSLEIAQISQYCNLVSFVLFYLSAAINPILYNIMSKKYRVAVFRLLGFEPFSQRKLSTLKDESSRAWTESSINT

[13] = target: T5, Glucocorticoid receptor (Homo sapiens, UniProt P04150)
T5 sequence (P04150 whole entry): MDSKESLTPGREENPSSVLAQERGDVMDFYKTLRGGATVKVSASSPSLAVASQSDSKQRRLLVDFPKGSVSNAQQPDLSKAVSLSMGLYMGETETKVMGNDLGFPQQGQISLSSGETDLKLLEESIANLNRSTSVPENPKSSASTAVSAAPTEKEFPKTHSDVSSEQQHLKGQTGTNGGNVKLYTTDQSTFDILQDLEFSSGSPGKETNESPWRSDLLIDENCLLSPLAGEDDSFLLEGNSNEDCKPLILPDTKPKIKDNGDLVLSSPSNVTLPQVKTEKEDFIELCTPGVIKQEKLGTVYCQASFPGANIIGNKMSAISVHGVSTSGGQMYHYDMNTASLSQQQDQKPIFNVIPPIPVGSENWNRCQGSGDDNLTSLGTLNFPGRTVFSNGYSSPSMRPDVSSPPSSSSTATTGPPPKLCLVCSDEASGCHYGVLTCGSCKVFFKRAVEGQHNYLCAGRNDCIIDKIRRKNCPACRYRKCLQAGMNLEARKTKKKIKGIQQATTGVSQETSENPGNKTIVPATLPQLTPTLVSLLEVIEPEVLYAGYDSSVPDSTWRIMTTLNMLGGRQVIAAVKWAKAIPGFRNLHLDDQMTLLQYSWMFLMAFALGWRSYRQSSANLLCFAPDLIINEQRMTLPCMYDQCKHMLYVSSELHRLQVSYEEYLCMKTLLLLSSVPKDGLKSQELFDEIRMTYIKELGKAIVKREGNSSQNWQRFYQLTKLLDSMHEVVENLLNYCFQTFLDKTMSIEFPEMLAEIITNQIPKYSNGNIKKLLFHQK
Note: assay procedure not described here.

Chain of Vasopressin V1a receptor (P37288 whole entry): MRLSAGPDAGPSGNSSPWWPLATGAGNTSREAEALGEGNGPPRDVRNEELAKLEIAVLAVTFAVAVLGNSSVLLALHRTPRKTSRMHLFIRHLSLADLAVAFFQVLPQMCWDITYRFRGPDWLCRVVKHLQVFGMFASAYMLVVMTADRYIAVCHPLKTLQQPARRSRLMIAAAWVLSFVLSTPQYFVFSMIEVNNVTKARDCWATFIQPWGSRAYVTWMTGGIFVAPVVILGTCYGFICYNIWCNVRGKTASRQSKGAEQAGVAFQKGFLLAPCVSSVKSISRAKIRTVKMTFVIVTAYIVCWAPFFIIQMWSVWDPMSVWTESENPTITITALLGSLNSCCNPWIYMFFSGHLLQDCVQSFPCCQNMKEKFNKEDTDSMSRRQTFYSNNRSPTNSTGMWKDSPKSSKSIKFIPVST
Chain of Sodium-dependent dopamine transporter (Q01959 whole entry): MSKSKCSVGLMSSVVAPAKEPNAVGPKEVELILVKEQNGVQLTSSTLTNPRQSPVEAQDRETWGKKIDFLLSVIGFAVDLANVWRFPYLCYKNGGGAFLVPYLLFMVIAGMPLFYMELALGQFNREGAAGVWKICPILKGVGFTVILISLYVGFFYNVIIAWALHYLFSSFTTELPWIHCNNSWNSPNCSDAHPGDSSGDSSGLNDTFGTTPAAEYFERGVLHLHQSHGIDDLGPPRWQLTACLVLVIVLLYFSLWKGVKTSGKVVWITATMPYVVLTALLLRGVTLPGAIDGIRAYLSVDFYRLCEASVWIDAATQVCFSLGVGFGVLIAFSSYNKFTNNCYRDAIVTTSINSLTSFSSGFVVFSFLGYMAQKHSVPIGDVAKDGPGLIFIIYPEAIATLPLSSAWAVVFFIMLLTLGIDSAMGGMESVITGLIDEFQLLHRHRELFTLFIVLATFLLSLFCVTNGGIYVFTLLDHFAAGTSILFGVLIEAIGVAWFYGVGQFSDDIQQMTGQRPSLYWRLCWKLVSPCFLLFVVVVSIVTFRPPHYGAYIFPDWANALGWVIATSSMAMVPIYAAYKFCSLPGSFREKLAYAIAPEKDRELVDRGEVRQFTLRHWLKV
Chain of Sodium-dependent noradrenaline transporter (P23975 whole entry): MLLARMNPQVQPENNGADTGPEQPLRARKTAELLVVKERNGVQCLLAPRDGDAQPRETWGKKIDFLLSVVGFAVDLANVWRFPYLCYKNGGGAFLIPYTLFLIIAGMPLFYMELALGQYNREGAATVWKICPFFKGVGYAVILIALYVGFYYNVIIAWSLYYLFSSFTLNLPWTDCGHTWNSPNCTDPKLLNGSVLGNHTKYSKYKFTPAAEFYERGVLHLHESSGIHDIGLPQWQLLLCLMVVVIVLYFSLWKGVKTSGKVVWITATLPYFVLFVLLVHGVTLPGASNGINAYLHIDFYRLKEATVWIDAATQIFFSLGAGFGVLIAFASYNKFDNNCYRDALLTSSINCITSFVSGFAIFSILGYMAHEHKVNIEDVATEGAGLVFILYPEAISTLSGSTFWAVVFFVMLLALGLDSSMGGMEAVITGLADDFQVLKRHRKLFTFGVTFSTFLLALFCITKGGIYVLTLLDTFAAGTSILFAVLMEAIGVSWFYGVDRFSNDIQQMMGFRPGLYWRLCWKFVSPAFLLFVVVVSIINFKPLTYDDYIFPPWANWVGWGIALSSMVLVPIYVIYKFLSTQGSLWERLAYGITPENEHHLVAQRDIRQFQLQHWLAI

| Compound | AC50 [1] [µM] | AC50 [2] [µM] | AC50 [3] [µM] | AC50 [4] [µM] | AC50 [5] [µM] | AC50 [6] [µM] | AC50 [7] [µM] | AC50 [8] [µM] | AC50 [9] [µM] | AC50 [10] [µM] | AC50 [11] [µM] | AC50 [12] [µM] | AC50 [13] [µM] |
| --- | --- | --- | --- | --- | --- | --- | --- | --- | --- | --- | --- | --- | --- |
| Oc1cc(O)c(Cl)cn1 | > 30 | > 30 | > 30 | > 30 | > 30 | > 30 | > 30 | > 30 | > 30 | > 30 | > 30 | > 30 |  |
| CCC1(CCC(C)C)C(=O)NC(=O)NC1=O [AMOBARBITAL] |  | > 10 | > 10 | > 30 |  | > 10 | > 10 | > 10 | > 30 | > 30 | > 10 | > 10 |  |
| COc1ccc(C2C(=O)c3ccccc3C2=O)cc1 [ANISINDIONE] |  | > 10 | > 10 | > 30 |  | > 10 | > 10 | > 10 | > 30 | > 30 | > 10 | > 10 | > 30 |
| Cc1cc(=O)n(-c2ccccc2)n1C [ANTIPYRINE] |  | > 30 | > 30 | > 30 | > 10 | > 30 | > 10 | > 30 | > 30 | > 30 | > 10 | > 30 |  |
| O=C(O)c1ccc(NC(=O)[C@H](Cc2ccc(O)cc2)NC(=O)c2ccccc2)cc1 [BENTIROMIDE] | > 10 | > 10 | > 10 | > 30 |  | > 10 | > 10 | > 10 | > 30 | > 30 | > 10 | > 10 |  |
| C[C@@H]1C[C@H]2[C@@H]3CCC4=CC(=O)C=C[C@]4(C)[C@@]3(F)[C@@H](O)C[C@]2(C)[C@@]1(O)C(=O)CO [DEXAMETHASONE] | > 30 | > 30 | > 30 | > 30 | > 30 | > 30 | > 10 | > 30 | > 30 | > 30 | > 10 | > 30 |  |
| CC(C)[C@@H](C)/C=C/[C@@H](C)[C@H]1CC[C@H]2/C(=C/C=C3\C[C@@H](O)CC[C@@H]3C)CCC[C@]12C [DIHYDROTACHYSTEROL] | > 10 | > 10 | > 10 | > 30 |  | > 10 | > 10 | > 10 | > 30 | > 30 | > 10 | > 10 |  |
| Oc1ccc(CCNCCCCCCNCCc2ccccc2)cc1O [DOPEXAMINE] | > 30 | 0.4 | 0.5 | > 30 | 11 | > 30 | > 30 | > 30 | > 30 | > 30 | > 30 | > 30 |  |
| CC(C)NC[C@H](O)COc1ccc(CC(N)=O)cc1 [ESATENOLOL] | > 10 | > 10 |  | > 10 |  | > 30 |  | > 30 | > 10 | > 10 |  | > 30 |  |
| CCOC(=O)c1ncn2c1CN(C)C(=O)c1cc(F)ccc1-2 [FLUMAZENIL] |  | > 30 | > 30 | > 30 | > 30 | > 30 | > 30 | > 30 | > 30 | > 30 |  | > 30 |  |
| CO[C@H]1C[C@H](O[C@H]2CC[C@@]3(C)[C@H](CC[C@@H]4[C@@H]3CC[C@]3(C)[C@@H](C5=CC(=O)OC5)[C@@H](OC(C)=O)C[C@]43O)C2)O[C@@H](C)[C@@H]1O [OLEANDRIN] |  |  |  | > 30 |  |  | > 30 |  | > 30 | > 30 | > 30 |  |  |
| CCC(=O)O[C@](Cc1ccccc1)(c1ccccc1)[C@H](C)CN(C)C [PROPOXYPHENE] | > 10 | > 10 | > 10 | > 30 | > 10 | > 30 | > 10 | > 30 | > 30 | > 30 | > 10 | > 30 |  |
| O=c1c(O)c(-c2ccc(O)c(O)c2)oc2cc(O)cc(O)c12 [QUERCETIN] | > 30 |  |  | > 30 | > 10 | > 30 | > 30 | > 30 | > 30 | > 30 |  | > 30 |  |
| CC1=C(/C=C/C(C)=C/C=C/C(C)=C/CO)C(C)(C)CCC1 [RETINOL] | > 10 | > 10 | > 10 | > 30 |  | > 10 | > 10 | > 10 | > 30 | > 30 | > 10 | > 10 |  |
| CCCN1CCCC[C@H]1C(=O)Nc1c(C)cccc1C [ROPIVACAINE] | > 30 | > 30 | > 30 | > 30 | > 30 | > 30 | > 30 | > 30 | > 30 | > 30 | > 30 | > 30 |  |
| CCCCCCCC(=O)CC[C@@H]1[C@@H](C/C=C\CCCC(=O)OC(C)C)[C@@H](O)C[C@H]1O [UNOPROSTONE ISOPROPYL] |  | 7.2 | 7.2 |  |  |  | 0.89 |  | > 30 |  |  |  |  |
